From PMC11125197, “Evaluation of Drug Blood-Brain-Barrier Permeability Using a Microfluidic Chip” (Pharmaceutics, 2024)

Key:
in vitro = details: human
Description: (§1) The design and construction of the BBB-on-a-chip were as reported previously. The chip (Emulate, #OCK-12) was composed of two parallel microchannels (top; 1 × 1 mm, bottom; 1 × 0.2 mm) separated by a porous polydimethysiloxane (PDMS) membrane (diameter, 7 μm; spacing, 40 μm; thickness, 50 μm, resulting in 2% porosity over a surface area of 0.171 cm^2 separating the two channels). The membrane was activated according to the manufacturer’s instructions and coated with the mixture of laminin (1 mg/mL), collagen IV (1 mg/mL), and fibronectin (1 mg/mL) in DPBS (Figure 1). Coated chips were incubated at 4 °C overnight, then at 37 °C for 1 h before seeding the cells. hBMEC cells (9 × 10^5 cells/mL) were 20 µL seeded into the bottom channel of the chip. The chip was immediately inverted and incubated at 37 °C for 4 h. After 4 h, hBMECs were prepared as previously described and re-injected into the bottom channel to mimic the vascular structure, as shown in right panel of Figure 2A.
(§2) Ten drugs (Table 1) were selected for BBB permeability analysis (CAF, CBZ, DES, LPM, CET, VIN, LP, NZD, DPZ, and SIM). […] We performed transport experiments for the basolateral-to-apical side and the apical-to-basolateral side.
(§3) Fifteen microliters of blood-and-brain medium was mixed with 135 μL internal standard (IS) solution (5 ng/mL disopyramide in acetonitrile). The mixture was vortexed briefly and centrifuged at 15,000 rpm for 5 min at 4 °C. […] Mobile phase A was 0.1% formic acid in water and mobile phase B was 0.1% formic acid in acetonitrile. Chromatographic separation was performed on a Luna C18 column (100 × 2 mm (i.d.) 3 μm, Phenomenex) with a Security Guard C18 guard column (4 mm × 20 mm (i.d.), Phenomenex) by gradient elution at a flow rate of 0.3 mL/min (Table 2). The mass spectrometer was operated in positive ion mode for all compounds, and the carryover was checked by the injection of a blank in between samples.
(§4) (1) Ctn,channel=Atn−1, channel+C(tn−tn−1),channel·tn−tn−1·channel flow rate/tn·channel flow rate, where Achannel is the drug amount of the channel; tn is time point; C(tn−tn−1),channel is the concentration of drug pooled from tn to tn−1; channel flow rate, fluid flow rate in channel;
(§5) (2) Cchannel=Css, channel · t/CT50, channel+t, where CT50, channel is the time at a half steady state concentration of channel; t, time.
(§6) Kp , the partition coefficient, in the BBB-on-a-chip was calculated by dividing the calculated Css, brain by the Css, blood value of the drug passing through the bottom channel, as shown in Equation (3). (3) Kp=Css, brain/Css, blood
(§7) J represents the rate at which the amount of compound moves from the bottom channel to the top channel, which was calculated by determining the slope of the time-versus-amount curve at 0 h to the point at which a steady state (90% of Tss ) was reached. Papp can be calculated by dividing J by the surface area of the membrane (SA) separating the two channels and the initial concentration in the bottom channel. (4) Papp=J/MW/SA·C0,blood ,J=dAbrain/dt, where MW is molecular weight of each drug.

[1] = test system: human BBB-on-a-chip (hBMEC, HBVP, NHA); experiment: BBB-on-a-chip permeability, apical to basolateral (blood to brain channel), LC-MS/MS
Description: as §1, §2, §3, §4, §5, §6, §7

[2] = test system: human BBB-on-a-chip (hBMEC, HBVP, NHA); experiment: BBB-on-a-chip permeability, basolateral to apical (brain to blood channel), LC-MS/MS; type: in vitro ADME; details: 1 μM in top channel
From the text: Css, channel , the concentration in the channel at the steady state, was estimated using a simple Emax model Equation (2) with time (h) on the x-axis and concentration (ng/mL) on the y-axis.

[3] = 1 μM dosed, simple Emax model fit, sampling 1, 4, 9, 24 h
[4] = 1 μM dosed, simple Emax model fit
[5] = time to reach predicted 90% Css

Structure (SMILES)	Kp (in vitro)	CT50,blood (time at half steady state concentration of blood channel) [1, 3]	Css,blood (steady state concentration of blood channel) ([1]; human)	Papp at 24 h, 1 μM (in vitro)	CT50,brain (time at half steady state concentration of brain channel) [1, 4]	Cplateau,brain (concentration at plateau time of brain channel) ([1]; human)	Css,brain (steady state concentration of brain channel) ([1]; human)	tplateau,brain (plateau time for brain channel) [1, 5]	also measured
CC[C@]1(O)C[C@H]2CN(CCc3c([nH]c4ccccc34)[C@@](C(=O)OC)(c3cc4c(cc3OC)N(C=O)[C@H]3[C@@](O)(C(=O)OC)[C@H](OC(C)=O)[C@]5(CC)C=CCN6CC[C@]43[C@@H]65)C2)C1 [Vincristine, vincristine]	0.0821	2.99 h	626.20 ng/mL	–	–	–	–	–	Plateau reached in brain channel during the observed time ([1]; observation up to 24 h): reached plateau
NC(=O)N1c2ccccc2C=Cc2ccccc21 [Carbamazepine, carbamazepine]	–	1.98 h	112.88 ng/mL	15.8 ×10⁻⁶ cm/s	3.27 h	28.6749 ng/mL	31.86 ng/mL	29.41 h	Kp at 1 μM (in vitro): 0.282; BBB permeability in words (apical to basolateral) ([1]; BBB-on-a-chip, 1 μM): high permeabilities
CNCCCN1c2ccccc2CCc2ccccc21 [Desipramine, desipramine]	–	57.44 h	–	32.5 ×10⁻⁶ cm/s	34.47 h	–	–	310.22 h	Css,blood (steady state concentration of blood channel) [1, 4]: 234.83 ng/mL; Css,brain (steady state concentration of brain channel) [1, 4]: 73.93 ng/mL; Cplateau,brain (concentration at plateau time of brain channel) ([1]; predicted 90% Css): 66.5383 ng/mL
Nc1nc(OC(c2ccc(-c3cccc(F)c3)cc2)C(F)(F)F)cc(-c2ccc(C[C@H](N)C(=O)O)cc2)n1 (some centres unmarked) [LP533401]	–	6.80 h	–	–	0.16 h	–	–	1.42 h	BBB permeability in words (apical to basolateral) [1]: low permeability; Papp (apparent permeability) [1]: 2.1693 10^−6cm/s; Css,blood (steady state concentration of blood channel) [1, 4]: 573.66 ng/mL; Css,brain (steady state concentration of brain channel) [1, 4]: 9.77 ng/mL; Kp (Brain/Blood), partition coefficient ([1]; human): 0.0170; Plateau reached in brain channel during the observed time ([1]; observation up to 24 h): reached plateau; Cplateau,brain (concentration at plateau time of brain channel) ([1]; predicted 90% Css): 8.7886 ng/mL
CN(C)C(=O)C(CCN1CCC(O)(c2ccc(Cl)cc2)CC1)(c1ccccc1)c1ccccc1 [Loperamide, loperamide]	0.0552	58.46 h	684.09 ng/mL	–	20.04 h	33.9736 ng/mL	37.75 ng/mL	–	Papp (in vitro): 9.26 ×10⁻⁶ cm/s; tplateau,brain (plateau time for brain channel) ([1]; human): 180.32 h; BBB permeability in words (basolateral to apical) [2]: high permeability
Cn1c(=O)c2c(ncn2C)n(C)c1=O [Caffeine, caffeine]	0.435	–	114.47 ng/mL	–	–	44.8098 ng/mL	49.79 ng/mL	–	Papp (in vitro): 30 ×10⁻⁶ cm/s; Plateau reached in brain channel during the observed time [1]: reached plateau; CT50,blood (time at half steady state concentration of blood channel) ([1]; human): 2.91 h; CT50,brain (time at half steady state concentration of brain channel) ([1]; human): 2.39 h; tplateau,brain (plateau time for brain channel) ([1]; human): 21.52 h
CCc1nn(CCCN2CCN(c3cccc(Cl)c3)CC2)c(=O)n1CCOc1ccccc1 [Nefazodone, nefazodone]	–	9.01 h	161.89 ng/mL	3.84 ×10⁻⁶ cm/s	37.79 h	13.8908 ng/mL	15.43 ng/mL	340.10 h	Kp at 1 μM (in vitro): 0.0953
